The text below walks through data of patent US11999727B2 (Tango Therapeutics, Inc., priority 2020, dated 2024).

Assay [1] deals with T1, PRMT5 (Homo sapiens, UniProt O14744).
T1 construct: purchased Viva (custom protein)
Briefly: PRMT5 biochemical IC50 assay with SAM as cofactor. Particulars: PRMT5, SAM as cofactor; read-out: SAM IC50.

In assay [2] the target is T1, PRMT5. Description: PRMT5 biochemical IC50 assay with no cofactor. As to conditions: PRMT5, no cofactor; read-out: No Cofactor/rel IC50. The text has this:
Table 1 indicates IC50 values (μM) against PRMT5 for exemplary compounds in the presence of SAM as cofactor, with no cofactor, and with MTA as cofactor, respectively (columns 4-6). […] Ki values can be calculated from the IC50 values as described in the Examples section. As detailed in the Examples section, for the assay performed in the presence of SAM, IC50=Ki×1.5 (Ki=IC50/1.5).

Assay [3] has as its target T1, PRMT5. Description: PRMT5 biochemical IC50 assay with MTA as cofactor. Particulars: PRMT5, MTA as cofactor; read-out: MTA IC50.
Assay [4] has as its system HAP1 MTAP-intact cell line. Briefly: SDMA in-cell western assay, HAP1 MTAP-intact. It is filed as cell-based. Particulars: Homo sapiens, HAP1, SDMA in-cell western, HAP1 MTAP-intact; read-out: MTAP HAP1 intact IC50. The essentials: (§1)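 Readout: in-cell western detection of SDMA. Cells: HAP1 expressing endogenous MTAP and an MTAP-null HAP1 counterpart. Output: IC50.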
Assay [5] deals with HAP1 MTAP-deleted cell line. Description: SDMA in-cell western assay, HAP1 MTAP-deleted. It is filed as cell-based. As to conditions: for IC50: Homo sapiens, HAP1, SDMA in-cell western, HAP1 MTAP-deleted, read-out: HAP1 MTAP deleted IC50; for MTAP intact/deleted ratio: IC50 ratio HAP1 MTAP-intact / HAP1 MTAP-deleted, SDMA in-cell western. In short, it runs like this: as §1
The test system of assay [6] is HAP1 MTAP-deleted cell line. Briefly: Viability assay, MTAP-deleted cell line. Particulars: Homo sapiens, HAP1, viability assay, MTAP-deleted cell line; read-out: HAP1 MTAP deleted viability. Format: cell-based. The text has this: Table 1 additionally indicates IC50 values in a viability assay for the MTAP-deleted cell line (column 10), indicating the effect of treatment with compound on cell survival.

T1 sequence (O14744 whole entry): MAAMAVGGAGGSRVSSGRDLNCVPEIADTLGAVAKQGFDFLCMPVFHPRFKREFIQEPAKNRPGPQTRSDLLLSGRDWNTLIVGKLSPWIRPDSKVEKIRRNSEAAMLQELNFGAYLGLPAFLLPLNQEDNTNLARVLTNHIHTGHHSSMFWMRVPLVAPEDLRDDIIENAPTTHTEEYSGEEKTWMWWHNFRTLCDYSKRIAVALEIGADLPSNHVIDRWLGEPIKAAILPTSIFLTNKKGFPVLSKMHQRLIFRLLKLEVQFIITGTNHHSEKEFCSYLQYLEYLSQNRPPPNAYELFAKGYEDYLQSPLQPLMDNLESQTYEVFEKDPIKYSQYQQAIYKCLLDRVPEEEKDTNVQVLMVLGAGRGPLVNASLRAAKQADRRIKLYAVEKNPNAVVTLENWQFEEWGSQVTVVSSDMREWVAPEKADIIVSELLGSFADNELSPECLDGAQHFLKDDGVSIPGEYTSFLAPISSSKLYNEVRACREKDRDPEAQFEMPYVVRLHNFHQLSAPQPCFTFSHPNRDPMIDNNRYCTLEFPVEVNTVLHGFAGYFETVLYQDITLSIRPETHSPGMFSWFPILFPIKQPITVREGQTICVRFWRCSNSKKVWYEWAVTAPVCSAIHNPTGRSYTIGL
T1 sequence (Q9BQA1 whole entry partner): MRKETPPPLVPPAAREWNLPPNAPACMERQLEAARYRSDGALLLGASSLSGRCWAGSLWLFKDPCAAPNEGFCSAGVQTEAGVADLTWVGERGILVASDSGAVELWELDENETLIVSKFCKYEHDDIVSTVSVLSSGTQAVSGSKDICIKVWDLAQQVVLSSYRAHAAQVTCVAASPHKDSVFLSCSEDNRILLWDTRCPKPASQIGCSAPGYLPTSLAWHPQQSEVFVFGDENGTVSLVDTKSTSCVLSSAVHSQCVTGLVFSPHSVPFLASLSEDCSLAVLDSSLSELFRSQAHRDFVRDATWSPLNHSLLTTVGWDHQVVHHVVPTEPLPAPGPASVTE

On to `C[C@@H]1CC[C@@H](c2ccc3c(c2)CCO3)N(C(=O)C(=O)Nc2cncc(C(N)=O)c2)C1` (racemic) [Compound 282, rac-5-{2-[(2R,5S)-2-(2,3-Dihydro-1-benzofuran-5-yl)-5-methylpiperidin-1-yl]-2-oxoacetamido}pyridine-3-carboxamide], for which the IC50 on PRMT5 [1] was greater than 500 nM; on PRMT5 [2], greater than 500 nM; at PRMT5 [3], 50 to 500 nM; in assay [4], greater than 1000 nM; in assay [5], 100 to 1000 nM; in assay [6] it was greater than 10000 nM. Also, the MTAP intact/deleted ratio entry in assay [5] was “A (an IC50 ratio greater than or equal to 10 fold)”.

For the molecule `Cc1cc(NC(=O)C(=O)N2C[C@H](C(N)=O)CC[C@H]2c2ccccc2)cnc1N` (racemic) [Compound 315], the IC50 at PRMT5 [1] is 50 to 500 nM; at PRMT5 [2] it was 50 to 500 nM; at PRMT5 [3], 50 to 500 nM; in assay [4], greater than 1000 nM; in assay [5], 100 to 1000 nM; in assay [6] it was greater than 10000 nM. In assay [5], the MTAP intact/deleted ratio entry was “A (an IC50 ratio greater than or equal to 10 fold)”.

For `NC(=O)c1cncc(NC(=O)C(=O)N2C[C@@H](CC(F)(F)F)CC[C@H]2c2ccccc2)c1` (racemic) [Compound 318, 5-[[2-Oxo-2-[(2R,5S)-2-phenyl-5-(2,2,2-trifluoroethyl)-1-piperidyl]acetyl]amino]pyridine-3-carboxamide], the IC50 is greater than 500 nM on PRMT5 [1]; greater than 500 nM at PRMT5 [2]; 50 to 500 nM at PRMT5 [3]; greater than 1000 nM in assay [4]; greater than 1000 nM in assay [5]; greater than 10000 nM in assay [6]. The MTAP intact/deleted ratio result in assay [5] is given as “C (an IC50 ratio of less than 3 fold)”.

`C[C@@H]1CC[C@@H](c2ccc(Cl)c(F)c2)N(C(=O)C(=O)Nc2cncc(C(N)=O)c2)C1` (racemic) [Compound 327, rac-5-{2-[(2R,5S)-2-(4-Chloro-3-fluorophenyl)-5-methylpiperidin-1-yl]-2-oxoacetamido}pyridine-3-carboxamide]: the IC50 at PRMT5 [1] is 50 to 500 nM; at PRMT5 [2], 50 to 500 nM; at PRMT5 [3], 50 to 500 nM; in assay [4] it was greater than 1000 nM; in assay [5], less than 100 nM; in assay [6], 1000 to 10000 nM. In addition, the MTAP intact/deleted ratio entry in assay [5] is “A (an IC50 ratio greater than or equal to 10 fold)”.

Turning to `C[C@@H]1CC[C@@H](c2ccc(Cl)c(C(F)(F)F)c2)N(C(=O)C(=O)Nc2cncc(C(N)=O)c2)C1` (racemic) [Compound 337, rac-5-{2-[(2R,5S)-2-[4-Chloro-3-(trifluoromethyl)phenyl]-5-methylpiperidin-1-yl]-2-oxoacetamido}pyridine-3-carboxamide], the IC50 on PRMT5 [1] was greater than 500 nM; on PRMT5 [2], 50 to 500 nM; at PRMT5 [3], 50 to 500 nM; in assay [4], greater than 1000 nM; in assay [5], 100 to 1000 nM; in assay [6], 1000 to 10000 nM. The MTAP intact/deleted ratio result in assay [5] is given as “A (an IC50 ratio greater than or equal to 10 fold)”.

`C[C@@H]1CC[C@@H](c2ccc(F)c(Cl)c2)N(C(=O)C(=O)Nc2cncc(C(N)=O)c2)C1` (racemic) [Compound 338, rac-5-{2-[(2R,5S)-2-(3-Chloro-4-fluorophenyl)-5-methylpiperidin-1-yl]-2-oxoacetamido}pyridine-3-carboxamide]: the IC50 is 50 to 500 nM at PRMT5 [1]; 50 to 500 nM on PRMT5 [2]; 50 to 500 nM at PRMT5 [3]; greater than 1000 nM in assay [4]; less than 100 nM in assay [5]; 1000 to 10000 nM in assay [6]. Further, the MTAP intact/deleted ratio entry in assay [5] was “A (an IC50 ratio greater than or equal to 10 fold)”.

Turning to `C[C@@H]1CC[C@@H](c2ccc3c(c2)CCCO3)N(C(=O)C(=O)Nc2cncc(C(N)=O)c2)C1` (racemic) [Compound 341, rac-5-{2-[(2R,5S)-2-(3,4-Dihydro-2H-1-benzopyran-6-yl)-5-methylpiperidin-1-yl]-2-oxoacetamido}pyridine-3-carboxamide], the IC50 on PRMT5 [1] was 50 to 500 nM; on PRMT5 [2], 50 to 500 nM; on PRMT5 [3], 50 to 500 nM; in assay [4], greater than 1000 nM; in assay [5] it was less than 100 nM; in assay [6], 1000 to 10000 nM. Moreover, the MTAP intact/deleted ratio result in assay [5] is on record as “A (an IC50 ratio greater than or equal to 10 fold)”.

With `NC(=O)c1cncc(NC(=O)C(=O)N2C[C@@H](CC(F)(F)F)CC[C@@H]2c2ccccc2)c1` (racemic) [Compound 342, 5-[[2-Oxo-2-[(2S,5S)-2-phenyl-5-(2,2,2-trifluoroethyl)-1-piperidyl]acetyl]amino]pyridine-3-carboxamide], the IC50 at PRMT5 [1] was 50 to 500 nM; on PRMT5 [2] it was greater than 500 nM; on PRMT5 [3], 50 to 500 nM; in assay [4], greater than 1000 nM; in assay [5], 100 to 1000 nM; in assay [6] it was greater than 10000 nM. The MTAP intact/deleted ratio result in assay [5] is “A (an IC50 ratio greater than or equal to 10 fold)”.

Take `NC(=O)c1cncc(NC(=O)C(=O)N2C[C@@H](O)CC[C@@H]2c2ccccc2)c1` (racemic) [Compound 349, 5-[[2-[(2R,5S)-5-Hydroxy-2-phenyl-1-piperidyl]-2-oxo-acetyl]amino]pyridine-3-carboxamide]: the IC50 on PRMT5 [1] is greater than 500 nM; on PRMT5 [2], greater than 500 nM; on PRMT5 [3], 50 to 500 nM; in assay [4] it was greater than 1000 nM; in assay [5], greater than 1000 nM; in assay [6] it was greater than 10000 nM. Moreover, in assay [5], the MTAP intact/deleted ratio entry is listed as “C* (an IC50 ratio of less than 3 fold)”.

Turning to `C[C@@H]1CC[C@@H](c2ccc3c(c2)OCC3)N(C(=O)C(=O)Nc2cncc(C(N)=O)c2)C1` (racemic) [Compound 405, rac-5-{2-[(2R,5S)-2-(2,3-Dihydro-1-benzofuran-6-yl)-5-methylpiperidin-1-yl]-2-oxoacetamido}pyridine-3-carboxamide], the IC50 was 50 to 500 nM at PRMT5 [1]; 50 to 500 nM on PRMT5 [2]; 50 to 500 nM at PRMT5 [3]; greater than 1000 nM in assay [4]; less than 100 nM in assay [5]; 1000 to 10000 nM in assay [6]. For the same molecule, the MTAP intact/deleted ratio entry in assay [5] is reported as “A (an IC50 ratio greater than or equal to 10 fold)”.

For the molecule `C[C@@H]1CC[C@@H](c2ccc3sccc3c2)N(C(=O)C(=O)Nc2cncc(C(N)=O)c2)C1` (racemic) [Compound 409, rac-5-[[2-[(2S,5R)-2-(benzothiophen-5-yl)-5-methyl-1-piperidyl]-2-oxo-acetyl]amino]pyridine-3-carboxamide], the IC50 was 50 to 500 nM at PRMT5 [1]; 50 to 500 nM on PRMT5 [2]; less than 50 nM at PRMT5 [3]; greater than 1000 nM in assay [4]; less than 100 nM in assay [5]; 1000 to 10000 nM in assay [6]. Also, the MTAP intact/deleted ratio result in assay [5] was “A (an IC50 ratio greater than or equal to 10 fold)”.

Consider `C[C@@H]1CC[C@H](c2ccc(NCC(=O)N(C)C)cc2)N(C(=O)C(=O)Nc2cncc(C(N)=O)c2)C1` (racemic) [Compound 422, 5-[[2-[(2R,5R)-2-[4-[[2-(Dimethylamino)-2-oxo-ethyl]amino]phenyl]-5-methyl-1-piperidyl]-2-oxo-acetyl]amino]pyridine-3-carboxamide], for which the IC50 at PRMT5 [1] is 50 to 500 nM; at PRMT5 [2], greater than 500 nM; on PRMT5 [3], 50 to 500 nM; in assay [4] it was greater than 1000 nM; in assay [5] it was 100 to 1000 nM; in assay [6], greater than 10000 nM. For the same molecule, the MTAP intact/deleted ratio result in assay [5] is “A (an IC50 ratio greater than or equal to 10 fold)”.

`C[C@@H]1CC[C@H](c2ccc(N[C@@H]3CCN(C)C3=O)cc2)N(C(=O)C(=O)Nc2cncc(C(N)=O)c2)C1` (racemic) [Compound 427, 5-[[2-[(2R,5R)-5-Methyl-2-[4-[[(3R)-1-methyl-2-oxo-pyrrolidin-3-yl]amino]phenyl]-1-piperidyl]-2-oxo-acetyl]amino]pyridine-3-carboxamide]: the IC50 at PRMT5 [1] was 50 to 500 nM; on PRMT5 [2], 50 to 500 nM; at PRMT5 [3], 50 to 500 nM; in assay [4], greater than 1000 nM; in assay [5], 100 to 1000 nM; in assay [6] it was greater than 10000 nM. In addition, the MTAP intact/deleted ratio entry in assay [5] is “A (an IC50 ratio greater than or equal to 10 fold)”.

With `COc1cc(OC)cc([C@@H]2CC[C@@H](C)CN2C(=O)C(=O)Nc2cncc(C(N)=O)c2)c1` (racemic) [Compound 428, rac-5-{2-[(2R,5S)-2-(3,5-Dimethoxyphenyl)-5-methylpiperidin-1-yl]-2-oxoacetamido}pyridine-3-carboxamide], the IC50 was greater than 500 nM at PRMT5 [1]; greater than 500 nM at PRMT5 [2]; 50 to 500 nM at PRMT5 [3]; greater than 1000 nM in assay [4]; 100 to 1000 nM in assay [5]; greater than 10000 nM in assay [6]. The MTAP intact/deleted ratio result in assay [5] was “A (an IC50 ratio greater than or equal to 10 fold)”.
